pEC50: −log10 of the molar value.

Common to all, as to type: cell-based, murine and human
Holding throughout (conditions): 20-24 hours

Assay [1] has as its target T1, PPAR-alpha ligand binding domain fused to GAL4 DNA binding domain (UniProt Q07869).
T1 sequence (Q07869 1-468): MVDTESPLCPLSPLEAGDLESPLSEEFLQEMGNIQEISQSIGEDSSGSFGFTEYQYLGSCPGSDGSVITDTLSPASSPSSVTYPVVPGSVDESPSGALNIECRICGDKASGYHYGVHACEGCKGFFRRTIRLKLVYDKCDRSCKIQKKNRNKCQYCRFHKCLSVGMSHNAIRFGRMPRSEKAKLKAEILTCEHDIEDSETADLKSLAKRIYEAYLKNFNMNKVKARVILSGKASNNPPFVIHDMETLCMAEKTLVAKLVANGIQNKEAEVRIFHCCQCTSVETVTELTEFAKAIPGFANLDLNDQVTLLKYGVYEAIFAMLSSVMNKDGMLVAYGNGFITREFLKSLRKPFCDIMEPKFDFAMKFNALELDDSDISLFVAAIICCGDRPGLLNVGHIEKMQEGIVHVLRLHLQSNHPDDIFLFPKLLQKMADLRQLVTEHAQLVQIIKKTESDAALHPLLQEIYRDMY
Put plainly: Transient transfection transactivation assay in CV-1 cells, PPAR-alpha (GAL4 chimera, luciferase reporter). The text has this: (§1) Compounds may be screened for functional potency in transient transfection assays in CV-1 cells for their ability to activate the PPAR subtypes (transactivation assay). A previously established chimeric receptor system was utilized to allow comparison of the relative transcriptional activity of the receptor subtypes on the same synthetic response element and to prevent endogenous receptor activation from complicating the interpretation of results. See, for example, Lehmann, J. M.; Moore, L. B.; Smith-Oliver, T. A; Wilkinson, W. O.; Willson, T. M.; Kliewer, S. A., An antidiabetic thiazolidinedione is a high affinity ligand for peroxisome proliferator-activated receptor […], J. Biol. Chem., 1995, 270, 12953-6. The ligand binding domains for murine and human PPAR-alpha, PPAR-gamma, and PPAR-delta are each fused to the yeast transcription factor GAL4 DNA binding domain. CV-1 cells were transiently transfected with expression vectors for the respective PPAR chimera along with a reporter construct containing four or five copies of the GAL4 DNA binding site driving expression of luciferase. After 8-16 h, the cells are replated into multi-well assay plates and the media is exchanged to phenol-red free DME medium supplemented with 5% delipidated calf serum. 4 hours after replating, cells were treated with either compounds or 1% DMSO for 20-24 hours. Luciferase activity was then assayed with Britelite (Perkin Elmer) following the manufacturer's protocol and measured with either the Perkin Elmer Viewlux or Molecular Devices Acquest (see, for example, Kliewer, S. A., et. al. Cell 1995, 83, 813-819). Rosiglitazone is used as a positive control in the PPARγ assay. Wy-14643 and GW7647 are used as positive controls in the PPARα assay. GW501516 is used as the positive control in the PPARδ assay.
For orientation: In a reporter assay the amount or activity of a reporter protein is the signal.

The target of assay [2] is T2, PPAR-delta ligand binding domain fused to GAL4 DNA binding domain (UniProt Q03181).
T2 sequence (Q03181 1-441): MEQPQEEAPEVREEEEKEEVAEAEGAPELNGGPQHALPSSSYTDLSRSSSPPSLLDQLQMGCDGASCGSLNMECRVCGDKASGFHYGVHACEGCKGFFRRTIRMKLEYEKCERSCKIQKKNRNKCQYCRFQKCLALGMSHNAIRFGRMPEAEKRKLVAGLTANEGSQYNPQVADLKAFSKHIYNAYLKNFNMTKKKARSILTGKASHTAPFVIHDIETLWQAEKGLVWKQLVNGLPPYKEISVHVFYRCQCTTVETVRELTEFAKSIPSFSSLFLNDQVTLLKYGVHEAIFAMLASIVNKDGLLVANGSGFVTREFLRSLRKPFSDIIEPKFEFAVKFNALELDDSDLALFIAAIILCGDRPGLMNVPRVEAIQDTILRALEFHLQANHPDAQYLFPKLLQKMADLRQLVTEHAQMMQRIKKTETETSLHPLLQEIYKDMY
The assay is described as follows: Transient transfection transactivation assay in CV-1 cells, PPAR-delta (GAL4 chimera, luciferase reporter).
Excerpt: as §1

Assay [3] has as its target T3, PPAR-gamma ligand binding domain fused to GAL4 DNA binding domain (UniProt P37231).
T3 sequence (P37231 1-505): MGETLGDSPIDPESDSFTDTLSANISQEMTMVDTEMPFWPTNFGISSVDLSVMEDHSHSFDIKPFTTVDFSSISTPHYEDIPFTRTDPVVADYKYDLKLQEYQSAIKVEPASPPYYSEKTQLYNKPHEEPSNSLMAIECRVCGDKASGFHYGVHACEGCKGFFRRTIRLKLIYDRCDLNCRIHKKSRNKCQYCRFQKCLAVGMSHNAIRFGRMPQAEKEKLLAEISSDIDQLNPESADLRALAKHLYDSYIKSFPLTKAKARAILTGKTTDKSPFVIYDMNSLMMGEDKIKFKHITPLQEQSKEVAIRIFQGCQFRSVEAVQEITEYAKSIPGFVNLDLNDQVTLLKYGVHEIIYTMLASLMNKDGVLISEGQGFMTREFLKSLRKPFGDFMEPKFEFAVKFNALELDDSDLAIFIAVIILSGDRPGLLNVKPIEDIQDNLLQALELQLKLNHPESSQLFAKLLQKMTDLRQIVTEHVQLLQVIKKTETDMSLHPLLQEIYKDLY
The assay is described as follows: Transient transfection transactivation assay in CV-1 cells, PPAR-gamma (GAL4 chimera, luciferase reporter).
Excerpt: as §1

With `C[C@@H]1CN(CCCc2ccc(OC(F)(F)F)cc2)C[C@H](C)N1S(=O)(=O)c1cccc2c1CC(C(=O)O)C2` (stereo partly drawn) [Example 17, 4-(cis-2,6-dimethyl-4-(3-(4-(trifluoromethoxy)phenyl)propyl)piperazin-1-ylsulfonyl)-2,3-dihydro-1H-indene-2-carboxylic acid], the values for the negative logarithm of the EC50 (pEC50) in assay [1], in assay [2] and in assay [3] were less than 4.00, more than 5.30 and 4.00 to 5.30, respectively.

Turning to `O=C(O)C1Cc2cccc(S(=O)(=O)N3CCN(C(=O)c4ccc(OC(F)(F)F)cc4)CC3)c2C1` (stereo not drawn) [Example 18, 4-(4-(4-(trifluoromethoxy)benzoyl)piperazin-1-ylsulfonyl)-2,3-dihydro-1H-indene-2-carboxylic acid], the negative-log EC50 (pEC50) in assay [1] is less than 4.00; in assay [2], 4.00 to 5.30; in assay [3], less than 4.00.

Consider `O=C(O)C1Cc2cccc(S(=O)(=O)N3CCN(C(=O)Cc4ccc(OC(F)(F)F)cc4)CC3)c2C1` (stereo not drawn) [Example 19, 4-(4-(2-(4-(trifluoromethoxy)phenyl)acetyl)piperazin-1-ylsulfonyl)-2,3-dihydro-1H-indene-2-carboxylic acid], for which the pEC50 in assay [1] was less than 4.00; in assay [2], 4.00 to 5.30; in assay [3], 4.00 to 5.30.

As to `O=C(O)C1Cc2cccc(S(=O)(=O)N3CCN(C(=O)Cc4ccc(C(F)(F)F)cc4)CC3)c2C1` (stereo not drawn) [Example 20, 4-(4-(2-(4-(trifluoromethyl)phenyl)acetyl)piperazin-1-ylsulfonyl)-2,3-dihydro-1H-indene-2-carboxylic acid], the pEC50 was less than 4.00 in assay [1], 4.00 to 5.30 in assay [2] and 4.00 to 5.30 in assay [3].

Regarding `O=C(O)C1Cc2cccc(S(=O)(=O)N3CCN(CCc4ccc(C(F)(F)F)cc4)CC3)c2C1` (stereo not drawn) [Example 21, 4-(4-(4-(trifluoromethyl)phenethyl)piperazin-1-ylsulfonyl)-2,3-dihydro-1H-indene-2-carboxylic acid], the figures for the pEC50 in assay [1], in assay [2] and in assay [3] were 4.00 to 5.30, more than 5.30 and 4.00 to 5.30, respectively.

`O=C(O)C1Cc2cccc(S(=O)(=O)N3CCN(CCCc4ccc(OC(F)(F)F)cc4)CC3)c2C1` (stereo not drawn) [Example 22, 4-(4-(3-(4-(Trifluoromethoxy)phenyl)propyl)piperazin-1-ylsulfonyl)-2,3-dihydro-1H-indene-2-carboxylic acid]: the pEC50 in assay [1] is 4.00 to 5.30; in assay [2], more than 5.30; in assay [3] it was more than 5.30.

As to `C[C@@H]1CN(CCc2ccc(SC(F)(F)F)cc2)C[C@H](C)N1S(=O)(=O)c1cccc2c1CC(C(=O)O)C2` (stereo partly drawn) [Example 23, 4-((cis)-2,6-Dimethyl-4-(4-(trifluoromethylthio)phenethyl)piperazin-1-ylsulfonyl)-2,3-dihydro-1H-indene-2-carboxylic acid], the negative-log EC50 (pEC50) in assay [1] is 4.00 to 5.30; in assay [2] it was more than 5.30; in assay [3], 4.00 to 5.30.

As to `C[C@@H]1CN(CCc2ccc(Cl)cc2)C[C@H](C)N1S(=O)(=O)c1cccc2c1CC(C(=O)O)C2` (stereo partly drawn) [Example 24, 4-(4-(4-chlorophenethyl)-(cis)-2,6-dimethylpiperazin-1-ylsulfonyl)-2,3-dihydro-1H-indene-2-carboxylic acid], the negative logarithm of the EC50 (pEC50) in assay [1] was less than 4.00; in assay [2], more than 5.30; in assay [3], less than 4.00.

`C[C@@H]1CN(CC2(c3ccc(Cl)cc3)CC2)C[C@H](C)N1S(=O)(=O)c1cccc2c1CC(C(=O)O)C2` (stereo partly drawn) [Example 25, 4-(4-((1-(4-chlorophenyl)cyclopropyl)methyl)-(cis)-2,6-dimethylpiperazin-1-ylsulfonyl)-2,3-dihydro-1-H-indene-2-carboxylic acid]: the pEC50 in assay [1] was less than 4.00; in assay [2], more than 5.30; in assay [3], less than 4.00.

On to `C[C@@H]1CN(CCc2ccc(C(F)(F)F)c(F)c2)C[C@H](C)N1S(=O)(=O)c1cccc2c1CC(C(=O)O)C2` (stereo partly drawn) [Example 26, 4-(4-(3-Fluoro-4-(trifluoromethyl)phenethyl)-(cis)-2,6-dimethylpiperazin-1-ylsulfonyl)-2,3-dihydro-1H-indene-2-carboxylic acid], for which the pEC50 in assay [1] was less than 4.00; in assay [2] it was more than 5.30; in assay [3], less than 4.00.

Take `C[C@@H]1CN(CCc2ccc(Cl)c(Cl)c2)C[C@H](C)N1S(=O)(=O)c1cccc2c1CC(C(=O)O)C2` (stereo partly drawn) [Example 27]: the pEC50 was less than 4.00 in assay [1], more than 5.30 in assay [2] and less than 4.00 in assay [3].

On to `C[C@@H]1CN(CC(c2ccc(Cl)cc2)c2ccc(Cl)cc2)C[C@H](C)N1S(=O)(=O)c1cccc2c1CC(C(=O)O)C2` (stereo partly drawn) [Example 28, 4-(4-(2,2bis(4-Chlorophenyl)ethyl)-(cis)-2,6-dimethylpiperazin-1-ylsulfonyl)-2,3-dihydro-1H-indene-2-carboxylic acid], for which the negative-log EC50 (pEC50) in assay [1], in assay [2] and in assay [3] was less than 4.00 in each case.

Usually pEC50 stands for −log10 of the EC50, conventionally taken in molar units. A higher pEC50 goes with a low EC50.

The values are drawn from patent publication US20070270434A1, “SULFONYL-SUBSTITUTED BICYCLIC COMPOUNDS AS MODULATORS OF PPAR” (KALYPSYS, INC., priority 2006, published 2007).
